Legend:
[1] = molecular target: T1, 5-HT1A receptors (Rattus norvegicus, UniProt P19327); test: 8-OH DPAT cue agonism in rats (drug discrimination); format: in vivo, male Wistar rats; design: agonist effects of a test compound on 5-HT1A receptors in vivo; from tissue; host or cells: living male Wistar rats (endogenous receptor, in vivo); settings: sc, read-out: 8-OH DPAT Cue Agonism ED50, rats, s.c., usually 30 or 45 min before test
T1 sequence (P19327 1-422): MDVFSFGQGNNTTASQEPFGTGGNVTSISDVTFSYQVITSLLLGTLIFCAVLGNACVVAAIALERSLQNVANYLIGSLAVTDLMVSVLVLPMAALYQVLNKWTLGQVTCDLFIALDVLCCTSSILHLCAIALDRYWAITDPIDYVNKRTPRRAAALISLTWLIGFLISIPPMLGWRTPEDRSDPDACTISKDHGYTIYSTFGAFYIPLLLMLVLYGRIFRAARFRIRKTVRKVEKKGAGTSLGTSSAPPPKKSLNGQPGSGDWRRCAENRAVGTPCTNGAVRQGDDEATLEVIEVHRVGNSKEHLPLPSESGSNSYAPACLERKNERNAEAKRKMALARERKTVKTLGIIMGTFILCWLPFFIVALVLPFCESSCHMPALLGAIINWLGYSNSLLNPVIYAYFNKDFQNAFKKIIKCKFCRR
Description: 8-OH DPAT Cue Agonisme in Rats
This test model is used to determine the agonist effects of a test compound on 5-HT1A receptors in vivo. A related method is described by Tricklebank, M. D., et al, Eur. J. Pharmacol., 1987, 133, 47-56; Arnt, J. Pharmacology & Toxicology, 1989, 64, 165.
Male Wistar rats are trained to discriminate between 8-OH-DPAT (0.4 mg/kg, i.p., 15 min pretreatment) and physiological saline in operant chambers equipped with two response levers. Between the levers a dipper is placed, where water rewards (0.1 ml) are presented. The rats are water deprived for at least 24 h and work in a fixed ratio (FR) schedule (final FR=32).
Following 8-OH-DPAT administration responding is reinforced only on a designated (drug) lever, whereas responding on the opposite lever has no consequences. Following saline administration responding is reinforced on the lever opposite to the drug lever. Drug and saline trials alternate randomly between days. The level of s discrimination occuracy is expressed as the per cent drug responses and is calculated as the number of correct responses ×100 divided by the sum of the correct and incorrect responses before the first reward. The time to the first reward is also recorded as a measure of reaction time. When stable occuracy (mean correst responding=90%; individual rats at least 75% correct responding) is obtained test sessions are included between training days. Test compound is injected s.c. usually 30 min or 45 min, respectively, before beginning of the test. The test trial is terminated when a total of 32 responses are made on either lever or when 20 min have elapsed. No reward is given and the rats have free access to water for 20-30 min after the test. The effects are expressed as per cent drug responding. Only results from rats making at least 10 responses on one lever are included in data analysis. Furthermore, only test sessions in which at least half of the rats respond are included.
The per cent inhibition of drug response obtained for each dose of test compound is used to calculate ED50 values by log-probit analysis.

[2] = molecular target: T1, 5-HT1A receptors; test: Inhibition of 3H-8-OH-DPAT binding to serotonin 5-HT1A receptors in rat brain in vitro; design: 5-HT1A receptors in membranes from rat brain minus cerebellum; from tissue; host or cells: brain minus cerebellum of male Wistar (Mol:Wist) rats, crude membranes; species or system rat (male Wistar); settings: 3H 8-OH DPAT binding IC50, 1 nM 3H-8-OH-DPAT, rat brain minus cerebellum membranes, 37° C., 15 min
Description: Male Wistar (Mol:Wist) rats (125-250 g) are sacrificed and the brain is dissected and weighed. The brain tissue minus cerebellum is homogenized (Ultra Turrax, 20 sec) in 10 ml of ice cold 50 nM Tris buffer pH 8.0 (at 25° C.) containing 120 mM NaCl, 4 mM CaCl2 and 4 mM MgCl2. The homogenate is centrifuged at 20,000 g for 10 min at 4° C. The pellet is homogenized in 10 ml of buffer and incubated at 37° C. for 10 min. The homogenate is centrifuged as above and the pellet is homogenized in 100 vol (w/v) ice cold buffer containing 10 μM of pargyline.
Incubation tubes kept on ice in triplicate receive 100 μl of drug solution in water (or water for total binding) and 1000 μl of tissue suspension (final tissue content corresponds to 10 mg original tissue). […] After incubation for 15 min the samples are filtered under vacuum (0-50 mBar) through Whatman GF/F filters (25 mm). The tubes are rinsed with 5 ml ice cold 0.9% NaCl which is then poured on the filters. Thereafter, the filters are washed with 2×5 ml 0.9% NaCl. The filters are placed in counting vials and 4 ml of appropriate scintillation fluid (e.g. Picofluor™ 15) are added. After shaking for 1 h and storage 2 h in the dark the content of radioactivity is determined by liquid scintillation counting. Specific binding is obtained by subtracting the nonspecific binding in the presence of 10 μM of 5-HT.
For determination of the inhibition of binding five concentrations of drugs covering 3 decades are used.
The IC50 -value is determined as the concentration, at which the binding is 50% of the total binding in control samples minus the nonspecific binding in the presence of 10 μM of 5-HT.

[3] = clinical studies; Glitz, Pohl, Drugs 1991; cited from earlier work

Compound | ED50 [1] | IC50 [2] | usefulness in the treatment of anxiety disorders (in words) [3]
CC(=O)Nc1ccc2c(c1)C(CN(C)CCN1CCNC1=O)CC2 (centres unmarked) [Compound 13d, 6-Acetylamino-1-[N-[2-(2-imidazolidinon-1-yl)ethyl]-N -methylaminomethyl]indan] | 0.61 µmol/kg | 1.8 nM | 
CCCN(CCC)CC1CCc2ccc(NC(C)=O)cc21 (centres unmarked) [Compound 2a, 6-Acetylamino-1-(N,N-dipropylaminomethyl)indan] | 0.01 µmol/kg | 0.89 nM | 
O=CNc1ccc2c(c1)C(CN1CCCCC1)CC2 (centres unmarked) [Compound 1c, 6-formylamino-1-(1-piperidinomethyl)indan] | 0.33 µmol/kg | 42 nM | 
CCCN(CCC)CC1CCc2cc(Cl)c(NC(C)=O)cc21 (centres unmarked) [Compound 11a, 6-Acetylamino-5-chloro-1-(N,N-dipropylaminomethyl)indan] | 0.26 µmol/kg | 21 nM | 
CCCN(CCC)CC1CCc2ccc(NC(=O)N(C)C)cc21 (centres unmarked) [Compound 4c, 6-(3,3-dimethyl-1-ureido)-1-(N,N-dipropylaminomethyl)indan] | 0.42 µmol/kg | 10 nM | 
CCCN(CCC)CC1CCc2ccc(NS(C)(=O)=O)cc21 (centres unmarked) [Compound 2g, 1-(N,N-dipropylaminomethyl)-6-(methylsulphonylamino)indan] | 0.93 µmol/kg | 16 nM | 
CCCN(CCC)CC1CCc2ccc(NC(=O)c3ccc(F)cc3)cc21 (centres unmarked) [Compound 2c, 1-(N,N-dipropylaminomethyl)-6-(4-fluorobenzoylamino)indan] | 2.2 µmol/kg | 5.1 nM | 
CN(C)CC1CCc2ccc(NC=O)cc21 (centres unmarked) [Compound 1b, 1-(N,N-dimethylaminomethyl)-6-formylaminoindan] | 0.41 µmol/kg | 110 nM | 
CC(=O)Nc1ccc2c(c1)C(CN(C)CCCCc1ccccc1)CC2 (centres unmarked) [Compound 13b, 6-Acetylamino-1-[N-methyl-N-(4-phenylbutan-1-yl)aminomethyl]indan] | 0.22 µmol/kg | 3.4 nM | 
CCCN(CCC)CC1CSc2ccc(NC=O)cc21 (centres unmarked) [Compound 5a, 3-(N,N-dipropylaminomethyl)-5-formylamino-2,3-dihydrobenzothiophene] | 0.046 µmol/kg | 3.4 nM | 
CCCN(CCC)CC1CCc2ccc(NC=O)cc21 (centres unmarked) [Compound 1a, 1-(N,N-dipropylaminomethyl)-6-formylaminoindan] | 0.0052 µmol/kg | 4.1 nM | 
CCCN(CCC)CC1CCc2cc(Cl)c(NC(C)=O)cc21 (single isomer, unassigned; (-)) [Compound 11b, (-)-6-Acetylamino-5-chloro-1-(N,N-dipropylaminomethyl)indan] | 0.44 µmol/kg | 15 nM | 
CC(=O)Nc1ccc2c(c1)C(CN(C)CCCCc1c[nH]c3ccccc13)CC2 (centres unmarked) [Compound 13c, 6-Acetylamino-1-[N-[4-(indol-3-yl)butan-1-yl]-N-methylaminomethyl]indan] | 0.66 µmol/kg | 1.5 nM | 
CC(=O)Nc1ccc2c(c1)C(CN(C)C)CC2 (centres unmarked) [Compound 2b, 6-Acetylamino-1-(N,N-dimethylaminomethyl)indan] | 0.21 µmol/kg | 25 nM | 
O=C1c2ccccc2S(=O)(=O)N1CCCCN1CCN(c2ncccn2)CC1 [ipsapirone, 2-[4-[4-(2-pyrimidyl)-1-piperazinyl]butyl]-1,2-benzothiazol-3(2H)-one-1,1-dioxide] |  |  | useful in the treatment of anxiety disorders
CC1(C)CC(=O)N(CCCCN2CCN(c3ncccn3)CC2)C(=O)C1 [gepirone, 4,4-dimethyl-1-[4-[4-(2-pyrimidyl)-1-piperazinyl]butyl]-2,6-piperidinedione] |  |  | useful in the treatment of anxiety disorders
CC(=O)Nc1ccc2c(c1)C(CN(C)CCCCC1CCCCC1)CC2 (centres unmarked) [Compound 13a, 6-Acetylamino-1-[N-(4-cyclohexylbutan-1-yl)-N-methylaminomethyl]indan] | 0.15 µmol/kg | 1.4 nM | 
